The source of these data is PubChem BioAssay AID2060612 (Molecular Pharmacology Branch, DTP, NCI, 2025).

The test system of this assay is 565232-114-T-J1-PDC complex spheroid viability. The assay is described as follows: Anticancer human tumor 565232-114-T-J1-PDC patient-derived bladder carcinoma cell line growth inhibition [CLK]. To be noted: for viability, T/C: stronger effect = lower value. The gist of the method:
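Multi-cell-type spheroids combined patient-derived tumor cells with HUVEC endothelial cells and human mesenchymal stem cells. Paired agents were dosed in half-log steps down from about clinical Cmax, or from 10 microM where Cmax was unknown.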

The mark [1] stands for this setting: curve of first compound, second compound 0.0316 µM.
The mark [2] stands for this setting: curve of first compound, second compound 0.1 µM.
The mark [3] stands for this setting: curve of first compound, second compound 0.316 µM.
[4] abbreviates: curve of first compound, second compound 1 µM.
The mark [5] stands for this setting: curve of first compound, second compound 3.16 µM.
Setting [6] is: curve of first compound, second compound 10 µM.
[7] abbreviates: second compound 0.0316 µM, first compound 0.0316 µM.
The mark [8] stands for this setting: second compound 0.0316 µM, first compound 0.1 µM.
Setting [9] is: second compound 0.0316 µM, first compound 0.316 µM.
Where [10] appears, read: second compound 0.0316 µM, first compound 1 µM.
Where [11] appears, read: second compound 0.1 µM, first compound 0.0316 µM.
[12] abbreviates: second compound 0.1 µM, first compound 0.1 µM.
Setting [13] is: second compound 0.1 µM, first compound 0.316 µM.
The mark [14] stands for this setting: second compound 0.1 µM, first compound 1 µM.
[15] abbreviates: second compound 0.316 µM, first compound 0.0316 µM.
Where [16] appears, read: second compound 0.316 µM, first compound 0.1 µM.
The mark [17] stands for this setting: second compound 0.316 µM, first compound 0.316 µM.
The mark [18] stands for this setting: second compound 0.316 µM, first compound 1 µM.
The mark [19] stands for this setting: second compound 1 µM, first compound 0.0316 µM.
Where [20] appears, read: second compound 1 µM, first compound 0.1 µM.
[21] abbreviates: second compound 1 µM, first compound 0.316 µM.
Setting [22] is: second compound 1 µM, first compound 1 µM.
Setting [23] is: second compound 3.16 µM, first compound 0.0316 µM.
[24] abbreviates: second compound 3.16 µM, first compound 0.1 µM.
Where [25] appears, read: second compound 3.16 µM, first compound 0.316 µM.
[26] abbreviates: second compound 3.16 µM, first compound 1 µM.
Setting [27] is: second compound 10 µM, first compound 0.0316 µM.
[28] abbreviates: second compound 10 µM, first compound 0.1 µM.
[29] abbreviates: second compound 10 µM, first compound 0.316 µM.
Where [30] appears, read: second compound 10 µM, first compound 1 µM.

Each structure is given as a SMILES string. Several values for one entry are separate records, joined by “and”; a condition that tells them apart may be missing. Equal values may be shown once.
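Further: spheroids exposed to compounds for 7 days before readout.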
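Wherever viability, T/C is given: 100% = DMSO vehicle wells with luminescence normalized to vehicle control.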

In the case of `Nc1ccccc1NC(=O)c1ccc(CNC(=O)OCc2cccnc2)cc1` + CN1CCN(c2cc(C(=O)Nc3cc4cc(-c5cnn(C)c5)ccc4cn3)ccn2)CC1, the IC50 under setting [1] stood at 5260 nM; the IC50 under setting [2] turned out to be 2660 nM; the IC50 under setting [3] is below 31.6 nM; the half-maximal inhibitory concentration (IC50) under setting [4] was below 31.6 nM; the concentration for half-maximal inhibition (IC50) under setting [5] is below 31.6 nM; the IC50 under setting [6] was below 31.6 nM. For the same compound, the viability, T/C by setting is: under setting [7], 110%; under setting [8], 108%; under setting [9], 111%; under setting [10], 100%; (second compound 0.0316 µM, first compound 3.16 µM) 89.8%; (second compound 0.0316 µM, first compound 10 µM) 1.38%. Also, the viability, T/C by setting is: under setting [11], 107%; under setting [12], 93.5%; under setting [13], 92.5%; under setting [14], 89.9%; (second compound 0.1 µM, first compound 3.16 µM) 42.9%; (second compound 0.1 µM, first compound 10 µM) 0.29%. Moreover, the viability, T/C reads like this: under setting [15], 16.2%; under setting [16], 23%; under setting [17], 11.5%; under setting [18], 9.54%; (second compound 0.316 µM, first compound 3.16 µM) 2.07%; (second compound 0.316 µM, first compound 10 µM) 0.07%. For the same compound, the viability, T/C is 0.15% under setting [19]; 1.24% under setting [20]; 3.47% under setting [21]; 0.16% under setting [22]; 1.45% (second compound 1 µM, first compound 3.16 µM); 0.11% (second compound 1 µM, first compound 10 µM). Besides, the viability, T/C is, setting by setting: under setting [23], 0.3%; under setting [24], 3.93%; under setting [25], 3.86%; under setting [26], 0.23%; (second compound 3.16 µM, first compound 3.16 µM) 0.19%; (second compound 3.16 µM, first compound 10 µM) 0.18%. In addition, the viability, T/C by setting is: under setting [27], 0.11%; under setting [28], 0.5%; under setting [29], 2.65%; under setting [30], 0.16%; (second compound 10 µM, first compound 3.16 µM) 0.94%; (second compound 10 µM, first compound 10 µM) 0.18%.
`CCN1CCN(Cc2ccc(Nc3ncc(F)c(-c4cc(F)c5nc(C)n(C(C)C)c5c4)n3)nc2)CC1`: the viability, T/C (compound 0.00316 µM) is 90.3% and 109%; the viability, T/C (compound 0.01 µM) was 84.6% and 93.8%; the viability, T/C (compound 0.0316 µM) is 99.3% and 92.6%; the viability, T/C (compound 0.1 µM) is 85.6% and 91.6%; the viability, T/C (compound 0.316 µM) is 103% and 81.7%; the viability, T/C (compound 1 µM) is 120% and 115%. The IC50 (curve of compound) was above 1000 nM.
Consider `CCN1CCN(Cc2ccc(Nc3ncc(F)c(-c4cc(F)c5nc(C)n(C(C)C)c5c4)n3)nc2)CC1` + CN1CCN(c2cc(C(=O)Nc3cc4cc(-c5cnn(C)c5)ccc4cn3)ccn2)CC1, for which the IC50 is above 1000 nM under setting [1]; above 1000 nM under setting [2]; below 3.16 nM under setting [3]; below 3.16 nM under setting [4]; below 3.16 nM under setting [5]; below 3.16 nM under setting [6]. For the same compound, the viability, T/C is 116% (second compound 0.0316 µM, first compound 0.00316 µM); 82.1% (second compound 0.0316 µM, first compound 0.01 µM); 98.7% under setting [7]; 92.8% under setting [8]; 113% under setting [9]; 123% under setting [10]. In addition, the viability, T/C is 88.1% (second compound 0.1 µM, first compound 0.00316 µM); 90.2% (second compound 0.1 µM, first compound 0.01 µM); 89% under setting [11]; 103% under setting [12]; 116% under setting [13]; 113% under setting [14]. The viability, T/C is 15.5% (second compound 0.316 µM, first compound 0.00316 µM); 24.7% (second compound 0.316 µM, first compound 0.01 µM); 23.2% under setting [15]; 29.1% under setting [16]; 42.4% under setting [17]; 61.1% under setting [18]. Also, the viability, T/C (second compound 1 µM, first compound 0.00316 µM) was 0.26%; the viability, T/C (second compound 1 µM, first compound 0.01 µM) is 0.27%; the viability, T/C under setting [19] was 0.3%; the viability, T/C under setting [20] is 0.29%; the viability, T/C under setting [21] was 1.31%; the viability, T/C under setting [22] is 2.37%. Besides, the viability, T/C was 0.2% (second compound 3.16 µM, first compound 0.00316 µM); 0.22% (second compound 3.16 µM, first compound 0.01 µM); 0.96% under setting [23]; 0.16% under setting [24]; 0.25% under setting [25]; 0.35% under setting [26]. In addition, the viability, T/C (second compound 10 µM, first compound 0.00316 µM) was 0.18%; the viability, T/C (second compound 10 µM, first compound 0.01 µM) was 0.2%; the viability, T/C under setting [27] was 0.5%; the viability, T/C under setting [28] was 0.16%; the viability, T/C under setting [29] was 0.21%; the viability, T/C under setting [30] is 1.34%.
As to `CC1COCCN1c1cc(C2(S(C)(=N)=O)CC2)nc(-c2ccnc3[nH]ccc23)n1` (stereo not given), the viability, T/C was 83.5% and 105% (compound 0.0316 µM); 88.9% and 90.1% (compound 0.1 µM); 101% and 94.8% (compound 0.316 µM); 88% and 99.1% (compound 1 µM); 76.2% and 99.8% (compound 3.16 µM); 63.5% and 25.8% (compound 10 µM). For the same compound, the IC50 (curve of compound) was > 10000 nM and 6780 nM.
Consider `CC1(C)CCC(CN2CCN(c3ccc(C(=O)NS(=O)(=O)c4ccc(NCC5CCOCC5)c([N+](=O)[O-])c4)c(Oc4cnc5[nH]ccc5c4)c3)CC2)=C(c2ccc(Cl)cc2)C1`, for which the viability, T/C reads like this: (compound 0.0316 µM) 83.5% and 111%; (compound 0.1 µM) 86.5% and 97.6%; (compound 0.316 µM) 80.5% and 95.8%; (compound 1 µM) 72.6% and 95.6%; (compound 3.16 µM) 78.2% and 100%; (compound 10 µM) 38.4% and 45.6%. Also, the IC50 (curve of compound) was 7080 nM and 9110 nM.
Take `Nc1ccccc1NC(=O)c1ccc(CNC(=O)OCc2cccnc2)cc1`: the viability, T/C is 103% and 80.6% (compound 0.0316 µM); 94.5% and 89.7% (compound 0.1 µM); 110% and 94.7% (compound 0.316 µM); 106% and 113% (compound 1 µM); 117% and 65.5% (compound 3.16 µM); 2.78% and 0.64% (compound 10 µM). Moreover, where the note is “curve of compound”, the IC50 was 5900 nM and 4160 nM.
In the case of `Nc1ccn(C2OC(CO)C(O)C2(F)F)c(=O)n1` (stereo not given), the viability, T/C (compound 0.0316 µM) was 95.5% and 50.3%; the viability, T/C (compound 0.1 µM) is 57% and 17.7%; the viability, T/C (compound 0.316 µM) was 36.3% and 10.3%; the viability, T/C (compound 1 µM) was 35.6% and 9.39%; the viability, T/C (compound 3.16 µM) is 37.5% and 13%; the viability, T/C (compound 10 µM) was 39.9% and 13.2%. Moreover, the half-maximal inhibitory concentration (IC50) (curve of compound) is 151 nM and 31.8 nM.
`Cn1ncnc1[C@H]1c2n[nH]c(=O)c3cc(F)cc(c23)N[C@@H]1c1ccc(F)cc1`: the viability, T/C runs as follows: (compound 0.000316 µM) 93.9% and 110%; (compound 0.001 µM) 72.5% and 92.8%; (compound 0.00316 µM) 77.5% and 109%; (compound 0.01 µM) 109% and 97.4%; (compound 0.0316 µM) 104% and 99.3%; (compound 0.1 µM) 105% and 37%. Also, the IC50 (curve of compound) is > 100 nM and 78.6 nM.
`CC(CO)NC(=O)c1cc(-c2ccc(Cl)cc2)nn(-c2cnn(C)c2)c1=O` (stereo not given): the viability, T/C runs as follows: (compound 0.0316 µM) 97.3% and 115%; (compound 0.1 µM) 85.3% and 77.5%; (compound 0.316 µM) 83.9% and 109%; (compound 1 µM) 90.8% and 89.4%; (compound 3.16 µM) 94.1% and 97.8%; (compound 10 µM) 90.5% and 91.3%. In addition, where the note is “curve of compound”, the half-maximal inhibitory concentration (IC50) was above 10000 nM.
Regarding `COc1ccc([C@@H](O)c2cc(-c3ncnc4cc(N5CCOCC5)ccc34)c(F)cc2Cl)nn1`, the viability, T/C is, setting by setting: (compound 0.0316 µM) 106% and 119%; (compound 0.1 µM) 88.3% and 115%; (compound 0.316 µM) 98.2% and 98.9%; (compound 1 µM) 102% and 77.9%; (compound 3.16 µM) 77.2% and 117%; (compound 10 µM) 99.1% and 81.8%. The IC50 (curve of compound) is above 10000 nM.

The term IC50 denotes the midpoint of a concentration-inhibition curve. A word on the viability, T/C: it is the result in the treated group divided by that in the control group, in per cent.
